According to paper PMC7894426, “Influence of verapamil on the pharmacokinetics of rotundic acid in rats and its potential mechanism” (Pharmaceutical Biology, 2021):
Read-outs that look alike come from different tables or passages of the source.

Key:
[1] = target: P-gp (Homo sapiens, UniProt P08183); experiment: Bidirectional transport across MDCKII-MDR1 cell monolayers (P-gp substrate assessment); conditions: dog, MDCK-MDR1, pH 7.4
Experimental: MDCKII-Mock and MDCKII-MDR1 cells were given as a gift by Fuji Biomedix Co., Ltd. (Japan) and cultured in DMEM supplemented with 10% FBS and 1% antibiotic (10,000 U/mL penicillin and 10 mg/mL streptomycin). Caco-2 cell line, the human epithelial cell used in this assay, was purchased from the Cell Bank of the Chinese Academy of Sciences (Shanghai, China) and maintained between 30 and 45 passages. It was cultured according to the previous report (Guo et al. [2018]; Xiang et al. [2020]). Briefly, the Caco-2 cells were cultured in DMEM supplemented with 10% FBS, 1% NEAA, and 1% antibiotic (10,000 U/mL penicillin and 10 mg/mL streptomycin). All cells were maintained in a 5% CO2 atmosphere and 90% relative humidity at 37 °C.
For transport studies, the MDCKII-Mock, MDCKII-MDR1, and Caco-2 cells were seeded at a density of 2 × 10^5 cells/mL on Costar Transwell inserts (1.12 cm^2 surface, polycarbonate, 12 mm diameter, 0.4 µm pore size). MDCKII-Mock and MDCKII-MDR1 cells were cultured for 5–7 days in medium, for the first four days, the medium was replaced freshly every two days, and then daily. The Caco-2 cells were cultured for 19–21 days in the medium. For the first 2 weeks, the medium was replaced freshly every two days, and then daily. […] The transepithelial electrical resistance (TEER) of the monolayer cells was measured by Millcell ERS-2 (Millipore, USA), and only the monolayer with TEER exceeding 150 Ω·m^2 (MDCKII-Mock and MDCKII-MDR1 cells) and 400 Ω·m^2 (Caco-2 cells) were used for the transport experiment. The membrane integrity and transport function of MDCKII-Mock, MDCKII-MDR1, and Caco-2 cell monolayers were further verified with Lucifer yellow and Rhodamine-123. The qualified monolayers were used for transport studies.
Before the transport studies, the media in both chambers of the transwell were replaced by warm (37 °C) Hank’s balanced salt solution (HBSS), and then the MDCKII-Mock, MDCKII-MDR1, and Caco-2 cell monolayers were incubated at 37 °C and 5% CO2 for 20 min. […] Our transport studies included absorptive direction transport from the apical (AP) side to the basolateral (BL) side and secretory direction transport from the BL side to the AP side. […] After administration, the transwell plate was placed in a thermostatic oscillator shaking at 60 rpm and 37 °C. At 10, 20, 40 and 60 min, respectively, 50 µL incubating sample aliquot was collected from the receiver chamber and immediately replaced by the same volume of fresh HBSS (37 °C). In addition, the membrane integrity of MDCKII-Mock, MDCKII-MDR1, and Caco-2 cell monolayers were evaluated with Lucifer yellow (30 µM) and TEER value, and the efflux activity of P-gp was validated using a typical P-gp substrate rhodamine-123 (10 µM).
The parameters Papp, RE, and NRE were calculated using the following equation: Papp=(ΔQ/Δt)×[1/(A×C0)]

[2] = system: rat liver microsomes; experiment: Metabolic stability in rat liver microsomes with or without verapamil; assay type: in vitro ADME; conditions: heat-inactivated microsomes, RA 2 µM
Experimental: (§1) Low metabolic stability is a major barrier to further improve the oral bioavailability of the herb drugs. To gauge the medicinal chemistry value of RA, we evaluated their metabolic stability in RLMs with or without verapamil. The in vitro microsomal stability assay was conducted in triplicate in rat liver microsomal systems, which were supplemented with NADPH as a cofactor. The assay conditions and reaction mixtures were similar to the previous report with minor modifications (Li et al. [2016]; Sun et al. [2019]). Briefly, the incubation system (final volume of 1 mL) consisted of 1 mg/mL rat liver microsomal protein, 1 mM NADPH, and 5 mM MgCl2 in 0.1 M sodium phosphate buffer (pH 7.4). The incubation system was pre-incubated at 37 °C for 15 min and initiated by adding RA methanol solution (final concentration of 2 µM). The effects of verapamil on the metabolic stability of RA were investigated by adding 50 µM of verapamil (Ma et al. [2000]; Lee and Kim [2013]; Dinger et al. [2014]) to RLMs and pre-incubating for 15 min at 37 °C. The final concentration of methanol (used for dissolving the substrate and inhibitor) was lower than 1% (v/v). Negative control was performed in parallel in a heat-inactivated liver microsomes incubation system to measure any chemical instability or non-enzymatic degradation. Aliquots of 50 µL incubation solution were collected from the reaction at 0, 5, 15, 30 and 60 min, and quenched with 50 µL ice-cold methanol (containing 0.5% formic acid) and 100 µL ice-cold acetonitrile containing IS (10 ng/mL). The samples were then vortexed for 1 min and centrifuged at 12,000 rpm for 10 min at 4 °C. The supernatants were collected and analyzed by LC-MS/MS.
(§2) Substrate depletion and in vitro half-life (t1/2) are common descriptors for metabolic stability. The t1/2 is calculated by the substrate disappearance. The obtained concentration value for time t is divided by the value for time zero and then multiplied by a factor of 100, which represents the ‘% Remaining’ to provide the relative remaining substrate level for the time t. The natural logarithm (ln) of the ‘% Remaining’ of RA was plotted against the incubation time (in min) using linear regression.
(§3) Where, ke, the elimination rate constant, is the slope of a linear regression curve in a semilog plot. Data were collected from triplicate experiments.

[3] = as above; assay type: in vitro ADME; conditions: rat, liver microsomes, RLMs 1 mg/mL, RA 2 µM; for k el at 2 µM: read-out: ke (converted)
Experimental: as §1, §2, §3

[4] = system: P-gp; experiment: Bidirectional transport across Caco-2 cell monolayer; assay type: in vitro ADME, human; conditions: human, pH 7.4, with verapamil 50 µM, Caco-2, 25 µM RA, + 50 µM verapamil
Experimental: (§4) The qualified monolayers were used for transport studies. […] Each experiment was carried out in triplicate.

[5] = as above; assay type: in vitro ADME, human; conditions: human, pH 7.4, Caco-2, 25 µM RA, without verapamil
Experimental: as §4

[6] = target: T1, CYP2D6 (Homo sapiens, UniProt P10635); experiment: Metabolic depletion of RA by rhCYP2D6; assay type: in vitro ADME; conditions: rhCYP2D6 25 pM, RA 2 µM, 30 min
T1 construct: purchased Research Institute for Liver Disease (Shanghai) Co., Ltd
T1 sequence (P10635 whole entry): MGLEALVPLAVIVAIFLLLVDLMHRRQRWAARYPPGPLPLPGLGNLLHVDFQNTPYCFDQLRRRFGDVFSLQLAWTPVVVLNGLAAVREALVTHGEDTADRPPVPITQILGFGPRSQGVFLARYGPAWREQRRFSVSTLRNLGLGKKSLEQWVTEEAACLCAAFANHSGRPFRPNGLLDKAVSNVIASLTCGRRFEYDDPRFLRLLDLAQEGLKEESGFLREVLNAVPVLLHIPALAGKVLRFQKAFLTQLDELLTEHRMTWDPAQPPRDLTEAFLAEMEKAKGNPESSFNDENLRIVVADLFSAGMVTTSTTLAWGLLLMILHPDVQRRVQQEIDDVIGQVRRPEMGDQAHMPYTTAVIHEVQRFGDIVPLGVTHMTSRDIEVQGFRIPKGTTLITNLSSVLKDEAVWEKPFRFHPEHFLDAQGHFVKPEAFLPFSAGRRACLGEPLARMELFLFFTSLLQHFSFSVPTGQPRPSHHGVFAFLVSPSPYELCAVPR
Experimental: (§5) The metabolic stability of RA was evaluated against five rhCYPs (1A2, 2C8, 2C9, 2D6 and 3A4). Incubation was taken place in 0.1 M sodium phosphate buffer (pH 7.4) containing 5 mM MgCl2, 1 mM NADPH, and 25 pM rhCYP enzyme protein at 37 °C in a total volume of 1 mL. After pre-incubated for 5 min, the reactions were started by the addition of RA methanol solution (final concentration of 2 µM). Aliquots of 50 µL incubation solution were collected from the reaction at 0, 5, 10, 20 and 30 min, and quenched with 50 µL ice-cold methanol (containing 0.5% formic acid) and 100 µL ice-cold acetonitrile containing IS (10 ng/mL). The heat-inactivated rhCYP3A4 were used as negative controls. All reactions were conducted in triplicate, followed by LC-MS/MS analysis. Results presented in percentage of drug remaining in incubation starting at 100% at time zero.

[7] = target: T2, CYP2C8 (Homo sapiens, UniProt P10632); experiment: Metabolic depletion of RA by rhCYP2C8; assay type: in vitro ADME; conditions: rhCYP2C8 25 pM, RA 2 µM, 30 min
T2 construct: purchased Research Institute for Liver Disease (Shanghai) Co., Ltd
T2 sequence (P10632 1-490): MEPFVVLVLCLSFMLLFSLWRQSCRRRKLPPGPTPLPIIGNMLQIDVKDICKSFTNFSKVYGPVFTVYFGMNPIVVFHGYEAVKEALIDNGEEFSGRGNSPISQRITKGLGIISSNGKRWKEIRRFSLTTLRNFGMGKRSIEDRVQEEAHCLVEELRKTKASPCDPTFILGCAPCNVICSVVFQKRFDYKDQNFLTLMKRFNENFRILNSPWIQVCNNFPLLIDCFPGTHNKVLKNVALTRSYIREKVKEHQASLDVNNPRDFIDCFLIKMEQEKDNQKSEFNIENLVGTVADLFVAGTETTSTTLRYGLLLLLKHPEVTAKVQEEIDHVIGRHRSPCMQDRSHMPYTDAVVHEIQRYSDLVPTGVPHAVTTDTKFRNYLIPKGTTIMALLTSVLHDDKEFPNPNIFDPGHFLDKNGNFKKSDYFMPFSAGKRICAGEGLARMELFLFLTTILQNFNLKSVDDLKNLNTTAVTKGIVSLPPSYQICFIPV
Experimental: as §5

[8] = pH 7.4, with verapamil 50 µM, pre-treatment of verapamil 50 µM
[9] = 10 min, read-out: RE (efflux ratio)
[10] = 20 min, read-out: RE (efflux ratio)
[11] = 40 min, read-out: RE (efflux ratio)
[12] = 60 min, read-out: RE (efflux ratio)

Sequence of P-gp (Homo sapiens, UniProt P08183) (P08183 whole entry): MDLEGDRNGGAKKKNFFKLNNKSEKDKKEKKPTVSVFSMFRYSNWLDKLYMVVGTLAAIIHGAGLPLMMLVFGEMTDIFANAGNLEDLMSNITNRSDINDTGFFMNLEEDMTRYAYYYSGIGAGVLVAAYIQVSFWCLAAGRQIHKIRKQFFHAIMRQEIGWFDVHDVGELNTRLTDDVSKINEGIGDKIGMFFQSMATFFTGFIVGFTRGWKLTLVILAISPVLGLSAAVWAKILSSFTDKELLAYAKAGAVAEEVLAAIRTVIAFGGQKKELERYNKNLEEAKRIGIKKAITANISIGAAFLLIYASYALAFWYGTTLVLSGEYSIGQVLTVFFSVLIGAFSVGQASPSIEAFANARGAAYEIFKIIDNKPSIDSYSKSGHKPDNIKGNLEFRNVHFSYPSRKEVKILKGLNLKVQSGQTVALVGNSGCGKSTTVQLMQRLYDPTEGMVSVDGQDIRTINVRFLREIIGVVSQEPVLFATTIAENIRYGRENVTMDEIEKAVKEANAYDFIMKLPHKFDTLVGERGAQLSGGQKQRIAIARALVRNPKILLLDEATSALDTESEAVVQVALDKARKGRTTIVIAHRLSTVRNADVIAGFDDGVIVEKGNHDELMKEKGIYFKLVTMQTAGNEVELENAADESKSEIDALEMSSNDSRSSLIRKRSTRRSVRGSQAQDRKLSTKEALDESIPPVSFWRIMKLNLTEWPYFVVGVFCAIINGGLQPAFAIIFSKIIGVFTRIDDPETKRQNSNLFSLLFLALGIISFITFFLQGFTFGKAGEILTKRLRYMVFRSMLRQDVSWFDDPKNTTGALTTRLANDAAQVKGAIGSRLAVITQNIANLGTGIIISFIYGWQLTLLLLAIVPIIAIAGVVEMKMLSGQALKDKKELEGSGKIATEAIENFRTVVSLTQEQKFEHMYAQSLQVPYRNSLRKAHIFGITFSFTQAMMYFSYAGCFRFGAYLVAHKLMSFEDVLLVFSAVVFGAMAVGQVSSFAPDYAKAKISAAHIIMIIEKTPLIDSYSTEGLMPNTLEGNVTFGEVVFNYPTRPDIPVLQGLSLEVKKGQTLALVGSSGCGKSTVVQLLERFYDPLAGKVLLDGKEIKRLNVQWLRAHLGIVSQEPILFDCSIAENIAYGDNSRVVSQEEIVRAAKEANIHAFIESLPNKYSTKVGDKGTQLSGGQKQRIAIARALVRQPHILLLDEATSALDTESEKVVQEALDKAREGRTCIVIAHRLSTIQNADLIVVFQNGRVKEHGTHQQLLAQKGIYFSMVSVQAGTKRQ

C[C@@H]1CC[C@]2(C(=O)O)CC[C@]3(C)C(=CC[C@@H]4[C@@]5(C)CC[C@H](O)[C@@](C)(CO)[C@@H]5CC[C@]43C)[C@@H]2[C@]1(C)O [RA, Rotundic acid]
Papp A→B at 20 min [1]: 4.22 ± 0.611 ×10⁻⁶ cm/s
Papp B→A at 20 min [1]: 12.1 ± 1.55 ×10⁻⁶ cm/s
efflux ratio at 20 min [1]: 2.87
degradation in negative control [2]: No obvious degradation
half-life at 2 µM [3, 8]: 58.2 ± 5.17 min
microsomal CLint at 2 µM [3, 8]: 12 ± 1.06 µL/min/mg
k el at 2 µM [3, 8]: 0.0002 s⁻¹
half-life at 2 µM ([3]; pH 7.4, control): 14.3 ± 0.941 min
microsomal CLint at 2 µM ([3]; pH 7.4, control): 48.5 ± 3.18 µL/min/mg
k el at 2 µM ([3]; pH 7.4, control): 0.000808 s⁻¹
Papp A→B at 10 min, 25 µM ([4]; 10 min): 1.07 ± 0.212 ×10⁻⁶ cm/s
Papp B→A at 10 min, 25 µM ([4]; 10 min): 2.73 ± 0.348 ×10⁻⁶ cm/s
efflux ratio at 10 min, 25 µM [4, 9]: 2.55
Papp A→B at 20 min, 25 µM ([4]; 20 min): 2.45 ± 0.707 ×10⁻⁶ cm/s
Papp B→A at 20 min, 25 µM ([4]; 20 min): 5.32 ± 0.306 ×10⁻⁶ cm/s
efflux ratio at 20 min, 25 µM [4, 10]: 2.17
Papp A→B at 40 min, 25 µM ([4]; 40 min): 4.69 ± 0.945 ×10⁻⁶ cm/s
Papp B→A at 40 min, 25 µM ([4]; 40 min): 5.68 ± 0.683 ×10⁻⁶ cm/s
efflux ratio at 40 min, 25 µM [4, 11]: 1.21
Papp A→B at 60 min, 25 µM ([4]; 60 min): 4.71 ± 0.524 ×10⁻⁶ cm/s
Papp B→A at 60 min, 25 µM ([4]; 60 min): 5.29 ± 0.438 ×10⁻⁶ cm/s
efflux ratio at 60 min, 25 µM [4, 12]: 1.12
efflux ratio at 25 µM ([5]; 10–60 min, read-out: Papp (BL→AP) relative to Papp (AP→BL)): 2
Papp A→B at 10 min, 25 µM ([5]; 10 min): 0.468 ± 0.0625 ×10⁻⁶ cm/s
Papp B→A at 10 min, 25 µM ([5]; 10 min): 3.25 ± 0.35 ×10⁻⁶ cm/s
efflux ratio at 10 min, 25 µM [5, 9]: 6.93
Papp A→B at 20 min, 25 µM ([5]; 20 min): 0.776 ± 0.128 ×10⁻⁶ cm/s
Papp B→A at 20 min, 25 µM ([5]; 20 min): 5.45 ± 0.806 ×10⁻⁶ cm/s
efflux ratio at 20 min, 25 µM [5, 10]: 7.02
Papp A→B at 40 min, 25 µM ([5]; 40 min): 2.8 ± 0.467 ×10⁻⁶ cm/s
Papp B→A at 40 min, 25 µM ([5]; 40 min): 7.13 ± 0.36 ×10⁻⁶ cm/s
efflux ratio at 40 min, 25 µM [5, 11]: 2.55
Papp A→B at 60 min, 25 µM ([5]; 60 min): 2.84 ± 0.441 ×10⁻⁶ cm/s
Papp B→A at 60 min, 25 µM ([5]; 60 min): 6.56 ± 0.941 ×10⁻⁶ cm/s
efflux ratio at 60 min, 25 µM [5, 12]: 2.31
RA converted [6]: < 30%
RA converted [7]: < 30%
